Assay results published in ChEMBL document CHEMBL4354832, “Discovery of a Covalent Inhibitor of KRASG12C (AMG 510) for the Treatment of Solid Tumors” (J Med Chem, 2020).
Values after ≈ are worked out from the molar mass of the structure shown. Values joined by “and” are separate entries in the source; they are usually repeats but may differ in a detail not shown here. Identical values can stand only once.

Columns and labels:
[1] = Half life in BALB/c mouse at 1 mg/kg, iv or 10 mg/kg, po; type: ADME, organism-based; details: in vivo
[2] = test system: A549; experiment: Antiproliferative activity against human A549 cells harboring KRAS G12S point mutant assessed as cell growth inhibition after 72 hrs by Celltiter-Glo luminescent cell viability assay; type: functional, cell-based; details: A549, 72 h
[3] = Clearance in BALB/c mouse at 1 mg/kg, iv or 10 mg/kg, po; type: ADME, organism-based; details: in vivo
[4] = Permeability of compound across apical to basolateral membrane in MDCK2 cells at 10 to 50 uM incubated for 2 hrs under shaking condition by LC-MS/MS analysis; type: ADME, cell-based, Canis lupus familiaris, MDCK-II; details: dog, MDCK; read-out: permeability
[5] = Solubility of compound in FaSSIF incubated for 48 to 72 hrs under shaking conditions by LCMS analysis; type: physicochemical
[6] = Intrinsic clearance in mouse cryopreserved hepatocytes assessed per 10^6 cells at 0.5 uM measured upto 60 mins by LCMS analysis; type: ADME, cell-based, Hepatocyte; details: read-out: CLH
[7] = Volume of distribution at steady state in BALB/c mouse at 1 mg/kg, iv or 10 mg/kg, po; type: ADME, organism-based; details: in vivo, read-out: Vdss
[8] = Oral bioavailability in BALB/c mouse at 10 mg/kg; type: ADME, organism-based; details: in vivo
[9] = test system: MIA PaCa-2; experiment: Antiproliferative activity against human MIAPaCa2 cells harboring KRAS G12C point mutant assessed as cell growth inhibition after 72 hrs by Celltiter-Glo luminescent cell viability assay; type: functional, cell-based; details: MIA PaCa-2, 72 h
[10] = Solubility of compound in 0.01N HCl at pH 2 incubated for 48 to 72 hrs under shaking conditions by LCMS analysis; type: physicochemical
[11] = Solubility of compound in PBS buffer at pH 7.4 incubated for 48 to 72 hrs under shaking conditions by LCMS analysis; type: physicochemical
[12] = Intrinsic clearance in human cryopreserved hepatocytes assessed per 10^6 cells at 0.5 uM measured upto 60 mins by LCMS analysis; type: ADME, cell-based, Hepatocyte; details: read-out: CLH
[13] = biological target: GTPase KRas (Homo sapiens, UniProt P01116); experiment: Inhibition of KRAS in human MIAPaca2 cells assessed as decrease in EGF-stimulated ERK1/2 phosphorylation preincubated for 2 hrs followed by EGF stimulation; type: cell-based
[14] = biological target: GTPase KRas (Homo sapiens, UniProt P01116, C118A/G12C); experiment: Inhibition of GDP bound recombinant human His-tagged KRAS G12C/C118A mutant (1 to 169 residues) assessed as reduction in SOS1-mediated GDP/GTP nucleotide exchange by measuring the disruption between GDP-bound recombinant His-tagged KRAS G12C/C118A (1 to 169 residues) and Ras binding domain of GST-tagged c-RAF (1 to 149 residues) preincubated for 5 mins followed by SOS1 and GTP addition and further incubated for 30 mins by AlphaLISA assay

| SMILES | half-life [1] [min] | IC50 [2] [nM] | clearance [3] [mL/min/kg] | Papp A→B at 2 h, up to 50 µM [4] [×10⁻⁶ cm/s] | solubility thermodynamic [5] [µM] | hepatocyte CLint at 0.5 µM [6] [µL/min/1e6 cells] | Vd [7] [L/kg] | bioavailability [8] [%] | IC50 [9] [nM] | solubility thermodynamic [10] [µM] | solubility thermodynamic [11] [µM] | hepatocyte CLint at 0.5 µM [12] [µL/min/1e6 cells] | IC50 [13] | IC50 [14] [nM] |
| --- | --- | --- | --- | --- | --- | --- | --- | --- | --- | --- | --- | --- | --- | --- |
| C=CC(=O)N1CCN(c2nc(=O)n(-c3c(C)ccnc3C(C)C)c3nc(-c4c(O)cccc4F)c(Cl)cc23)[C@@H](C)C1 | 24 | 34100 | 65 | 1 | 381 (≈ 220 µg/mL) | 75 | 0.8 | < 0.5 | 1 | 500 (≈ 289 µg/mL) | 46 (≈ 26.5 µg/mL) | 11 | – | – |
| C=CC(=O)N1CCN(c2nc(=O)n(-c3ccccc3C(C)(C)C)c3nc(-c4c(O)cccc4F)c(Cl)cc23)[C@@H](C)C1 | – | – | – | – | – | – | – | – | – | – | – | – | 51 nM | – |
| C=CC(=O)N1CCN(c2nc(=O)n(-c3c(C)cccc3C(C)C)c3nc(-c4c(O)cccc4F)c(F)cc23)[C@@H](C)C1 | 30 | 11600 | 33.3 | 22 | 164 (≈ 91.8 µg/mL) | 111 | 1.1 | < 0.5 | 11 | 24 (≈ 13.4 µg/mL) | 41 (≈ 22.9 µg/mL) | 37 | – | – |
| C=CC(=O)N1CCN(c2nc(=O)n(-c3ccccc3C(C)C)c3cc(-c4ccccc4Cl)c(Cl)cc23)[C@@H](C)C1 | – | 7400 | – | 6 | 255 (≈ 143 µg/mL) | 397 | – | – | 18 | – | – | 317 | 220 nM | – |
| C=CC(=O)N1CCN(c2nc(=O)n(-c3ncccc3C(C)C)c3nc(-c4c(O)cccc4F)c(Cl)cc23)[C@@H](C)C1 | – | – | – | – | – | – | – | – | – | – | – | – | 53 nM | – |
| C=CC(=O)N1CCN(c2nnc(-c3ccccc3Cl)c3cc(-c4c(O)cccc4F)c(Cl)cc23)CC1 | – | – | – | – | – | – | – | – | – | – | – | – | 3530 nM | 3520 |
| C=CC(=O)N1CCN(c2nc(=O)n(-c3ccccc3C(C)C)c3nc(-c4ccccc4F)c(Cl)cc23)[C@@H](C)C1 | 36 | 7900 | 60 | 20 | 224 (≈ 122 µg/mL) | 236 | 2.3 | 9 | 5 | – | 11 (≈ 6.01 µg/mL) | 135 | – | – |
| C=CC(=O)N1CCN(c2nc(=O)n(-c3ccnn3C(C)C)c3nc(-c4c(O)cccc4F)c(Cl)cc23)[C@@H](C)C1 | – | – | – | – | – | – | – | – | – | – | – | – | 218 nM | – |
| C=CC(=O)N1CCN(c2nc(=O)n(-c3ccccc3C(C)C)c3nc(-c4ccccc4Cl)c(Cl)cc23)[C@@H](C)C1 | 36 | 7100 | 90 | 12 | 175 (≈ 98.4 µg/mL) | 319 | 4.8 | 12 | 16 | – | – | 205 | – | – |
| C=CC(=O)N1CCN(c2nc(=O)n(-c3ccccc3C(C)C)c3nc(-c4ccccc4O)c(Cl)cc23)[C@@H](C)C1 | 30 | 12200 | 28.3 | 18 | 299 (≈ 163 µg/mL) | 288 | 0.8 | 10 | 13 | 57 (≈ 31 µg/mL) | 88 (≈ 47.9 µg/mL) | 82 | – | – |
| C=CC(=O)N1CCN(c2nc(=O)n(-c3c(C)ncnc3C(C)C)c3nc(-c4c(O)cccc4F)c(Cl)cc23)[C@@H](C)C1 | 18 | > 50000 | 58.3 | 1 | 500 (≈ 289 µg/mL) | 139 | 0.4 | < 0.5 | 3 | 421 (≈ 243 µg/mL) | 499 (≈ 288 µg/mL) | 5 | – | – |
| C=CC(=O)N1CCN(c2nc(=O)n(-c3ccccc3C(C)C)c3cc(-c4ccccc4F)c(Cl)cc23)[C@@H](C)C1 | 54 | 5800 | 26.7 | 10 | 260 (≈ 142 µg/mL) | 356 | 1.4 | 12 | 6 | – | – | 166 | – | – |
| C=CC(=O)N1CCN(c2ncnc3c(F)c(-c4c(O)cccc4F)c(Cl)cc23)CC1 | – | – | – | – | – | – | – | – | – | – | – | – | 831 nM | 939 |
| C=CC(=O)N1CCN(c2nc(=O)n(-c3ccccc3C(C)C)c3cc(-c4ccccc4C(F)(F)F)c(Cl)cc23)[C@@H](C)C1 | – | 7400 | – | 3 | 218 (≈ 130 µg/mL) | 270 | – | – | 40 | – | – | 148 | – | – |
| C=CC(=O)N1CCN(c2nc(=O)n(-c3ccccc3C3CC3)c3nc(-c4c(O)cccc4F)c(Cl)cc23)[C@@H](C)C1 | – | – | – | – | – | – | – | – | – | – | – | – | 109 nM | 225 |
| C=CC(=O)N1CCN(c2nc(=O)n(-c3c(C)ncnc3C(C)C)c3nc(-c4c(O)cccc4F)c(F)cc23)[C@@H](C)C1 | 18 | > 50000 | 78.3 | < 1 | 500 (≈ 281 µg/mL) | 65 | 1.7 | 10 | 9 | 500 (≈ 281 µg/mL) | 495 (≈ 278 µg/mL) | 5 | – | – |
| C=CC(=O)N1CCN(c2nc(=O)n(-c3c(C(C)C)ccnc3C)c3nc(-c4c(O)cccc4F)c(F)cc23)[C@@H](C)C1 | 18 | 49100 | 61.7 | 1 | 477 (≈ 267 µg/mL) | 100 | 1.1 | 15 | 16 | 484 (≈ 271 µg/mL) | 426 (≈ 239 µg/mL) | 9 | – | – |
| C=CC(=O)N1CCN(c2nnc(-c3ccccc3C(C)C)c3cc(-c4c(O)cccc4F)c(Cl)cc23)CC1 | – | – | – | – | – | – | – | – | – | – | – | – | 1800 nM | 683 |
| C=CC(=O)N1CCN(c2nc(=O)n(-c3ccccc3C(C)C)c3nc(-c4c(O)cccc4F)c(Cl)cc23)CC1 | 90 | 11500 | 13.3 | 6 | 204 (≈ 112 µg/mL) | 109 | 0.5 | 1.3 | 11 | 14 (≈ 7.67 µg/mL) | 14 (≈ 7.67 µg/mL) | 32 | – | – |
| C=CC(=O)N1CCN(c2nc(=O)n(-c3ccccc3C(C)C)c3cc(-c4cc(O)cc5ccccc45)c(Cl)cc23)CC1 | – | 2700 | – | – | 71 (≈ 41.1 µg/mL) | – | – | – | 17 | – | – | – | – | – |
| C=CC(=O)N1CCN(c2nnc(-c3ccccc3OC)c3cc(-c4c(O)cccc4F)c(Cl)cc23)CC1 | – | – | – | – | – | – | – | – | – | – | – | – | 8050 nM | 9150 |
| C=CC(=O)N1CCN(c2nc(=O)n(-c3ccccc3C(C)C)c3cc(-c4c(O)cccc4F)c(Cl)cc23)CC1 | 204 | 10300 | 5 | 2 | 191 (≈ 104 µg/mL) | 195 | 0.8 | < 0.5 | 33 | – | – | 56 | 335 nM and 130 nM | 101 |
| C=CC(=O)N1CCN(c2nnc(-c3ccccc3C)c3cc(-c4c(O)cccc4F)c(Cl)cc23)CC1 | – | – | – | – | – | – | – | – | – | – | – | – | 3330 nM | 5710 |
| C=CC(=O)N1CCN(c2nc(=O)n(-c3c(C)cccc3C)c3nc(-c4c(O)cccc4F)c(Cl)cc23)[C@@H](C)C1 | – | – | – | – | – | – | – | – | – | – | – | – | 199 nM | – |
| C=CC(=O)N1CCN(c2nnc(-c3ccccc3C3CC3)c3cc(-c4c(O)cccc4F)c(Cl)cc23)CC1 | – | – | – | – | – | – | – | – | – | – | – | – | 7150 nM | 1550 |
| C=CC(=O)N1CCN(c2nnc(-c3ccccc3CC)c3cc(-c4c(O)cccc4F)c(Cl)cc23)CC1 | – | – | – | – | – | – | – | – | – | – | – | – | 2580 nM | 903 |
| C=CC(=O)N1CCN(c2nnc(-c3ccccc3)c3cc(-c4c(O)cccc4F)c(Cl)cc23)CC1 | – | – | – | – | – | – | – | – | – | – | – | – | 58000 nM | 20100 |
| C=CC(=O)N1CCN(c2nc(=O)n(-c3ccccc3C(C)C)c3cc(-c4c(C)ccc5[nH]ncc45)c(Cl)cc23)CC1 | 168 | 1700 | 70 | 4 | 218 (≈ 124 µg/mL) | 180 | 5.3 | < 0.5 | 4 | – | – | 121 | 8 nM | – |
| C=CC(=O)N1CCN(c2nc(=O)n(-c3ccccc3C(C)C)c3cc(-c4c(O)cccc4F)c(Cl)cc23)[C@@H](C)C1 | – | 15300 | – | 1 | 226 (≈ 127 µg/mL) | 263 | – | – | 14 | – | – | 113 | 28 nM | – |
| C=CC(=O)N1CCN(c2nc(=O)n(-c3ccccc3C(C)C)c3cc(-c4ccccc4F)c(Cl)cc23)CC1 | – | 6400 | – | 7 | 344 (≈ 183 µg/mL) | 415 | – | – | 22 | – | – | 197 | – | – |
